What was measured:
[1] = tested on: keratinocytes; conditions: cited from earlier work
[2] = tested on: μ-opioid receptor expression; conditions: spinal cord and dorsal root ganglia (DRG); cited from earlier work
[3] = tested on: Walker 256 tumor-bearing rats; conditions: cited from earlier work
[4] = tested on: paclitaxel-induced neuropathic pain; conditions: 8 days once daily (i.p.) dosing or chronic infusion over 4 weeks; cited from earlier work
[5] = molecular target: human CB2 (Homo sapiens, UniProt P34972); assay: Forskolin-stimulated cAMP accumulation (cyclase), HEK hCB2; format: cell-based; parameters: expressed in transfected cells
[6] = tested on: paclitaxel-induced mechanical allodynia; assay: Paclitaxel-induced mechanical allodynia (electronic von Frey); format: in vivo, mouse
Method: (§1) In all studies, the experimenter was blinded to the treatment condition, and mice were randomly assigned to experimental conditions. Paclitaxel (4 mg/kg i.p.) was administered four times on alternate days (cumulative dose, 16 mg/kg i.p.) to induce neuropathic pain as described previously by our group (Deng et al., 2015). Control mice received an equal volume of cremophor-vehicle. Development of paclitaxel-induced allodynia was assessed on day 0, 4, 7, 11, and 14.
(§2) Effects of pharmacologic manipulations were assessed at 30 minutes after drug administration during the maintenance phase of paclitaxel-induced neuropathy (i.e., beginning day 18-20 after initial paclitaxel injection).
(§3) In experiments 2 and 3, pharmacologic manipulations were performed once daily for 12 consecutive days in each of the two phases of chronic treatment. Four days separated phase 1 and phase 2 chronic dosing in all studies comprising two phases of chronic dosing. Experiments 2 and 3 were performed concurrently using overlapping cohorts that were tested with a single vehicle (phase 1), vehicle (phase 2) group.
(§4) We then assessed the antiallodynic efficacy of chronic systemic administration of vehicle or morphine (10 mg/kg per day i.p.×12 days) administered during phase 2 in the same animals. Responsiveness to mechanical and cold stimulation was evaluated on treatment days 1, 4, 8, and 12 during phase 1 and on treatment days 16, 19, 23, and 27 during phase 2 (i.e., phase 2 started on day 16).
(§5) In experiment 4, we evaluated the impact of coadministration of morphine (10 mg/kg i.p.×12 days) with a submaximal dose of LY 2828360 (0.1 mg/kg per day i.p.×12 days) in WT and CB2 KO mice.
Paw withdrawal thresholds (grams) to mechanical stimulation were measured in duplicate for each paw using an electronic von Frey anesthesiometer supplied with a 90-g probe (model Alemo 2390-5; IITC, Woodland Hills, Calif.) as described previously. Mice were placed on an elevated metal mesh table and allowed to habituate under individual, inverted plastic cages to the testing platform for at least 20 minutes until exploratory behavior had ceased. Alter the habituation period, a force was applied to the midplantar region of the hind paw with a semiflexible tip connected to the anesthesiometer. Mechanical stimulation was terminated when the animal withdrew its paw, and the value of the applied force was recorded in grams. Mechanical paw withdrawal thresholds were obtained in duplicate for each paw and are reported as the mean of duplicate determinations from each animal, averaged across animals, for each group.

[7] = tested on: naloxone-precipitated opioid withdrawal; assay: Naloxone-precipitated opioid withdrawal in paclitaxel-treated mice; format: in vivo, mouse; conditions: paclitaxel-treated WT mice
Method: Alter the last injection of morphine (on day 28 for two-phase treatments, on day 13 for coadministration treatment), we challenged WT or CB2KO mice from experiments 2, 3, and 4 with vehicle, followed 30 minutes later by naloxone (5 mg/kg i.p.) to precipitate opioid receptor-mediated withdrawal. Mice were video-recorded for subsequent scoring of withdrawal-like behaviors for a 30-minute interval after challenge with vehicle or naloxone.
Mice were video-taped, and the number of jumps was scored in 5-minute intervals for a total observation period of 30 minutes after challenge with either saline or naloxone (5 mg/kg i.p.).

[8] = tested on: paclitaxel-induced cold allodynia; assay: Paclitaxel-induced cold allodynia (acetone); format: in vivo, mouse
Method: as §1, §2, §3, §4, §5
Response time (seconds) spent attending to (i.e., elevating, licking, biting, or shaking) the paw stimulated with acetone (Sigma-Aldrich) was measured in triplicate for each paw to assess cold allodynia as previously published. An acetone bubble (approximately 5 to 6 p.1) formed at the end of a blunt 1-ml syringe hub was gently applied to the plantar surface of the hind paw. Care was taken not to apply mechanical stimulation to the hind paw with the syringe itself. The total time the animal spent attending to the acetone-stimulated paw (i.e., elevation, shaking, or licking) was recorded over 1 minute after acetone application. Acetone was applied three times to each paw with a 3-minute interval between applications. Values for each animal were calculated as the mean of six determinations of acetone responsiveness derived from each mouse.

[9] = molecular target: T1, mouse CB2 receptors (Mus musculus, UniProt P47936); assay: Forskolin-stimulated cAMP accumulation (cyclase), HEK mCB2; format: cell-based
T1 construct: expressed in transfected cells

[10] = tested on: preclinical inflammatory, postoperative, and neuropathic pain; conditions: dose- and time-dependent; cited from earlier work
[11] = tested on: morphine analgesia and antinociceptive tolerance; conditions: rats, with morphine; cited from earlier work
[12] = tested on: formalin model of inflammatory pain; conditions: coadministration; cited from earlier work
[13] = WT mice, 5 mg/kg per day i.p.×12 days
[14] = WT mice, AM1710 5 mg/kg per day×12 days phase I, morphine 10 mg/kg per day×12 days phase II
[15] = paclitaxel-treated WT mice, 5 mg/kg per day i.p.×12 days, vs vehicle

Sequence of human CB2 (P34972 whole entry): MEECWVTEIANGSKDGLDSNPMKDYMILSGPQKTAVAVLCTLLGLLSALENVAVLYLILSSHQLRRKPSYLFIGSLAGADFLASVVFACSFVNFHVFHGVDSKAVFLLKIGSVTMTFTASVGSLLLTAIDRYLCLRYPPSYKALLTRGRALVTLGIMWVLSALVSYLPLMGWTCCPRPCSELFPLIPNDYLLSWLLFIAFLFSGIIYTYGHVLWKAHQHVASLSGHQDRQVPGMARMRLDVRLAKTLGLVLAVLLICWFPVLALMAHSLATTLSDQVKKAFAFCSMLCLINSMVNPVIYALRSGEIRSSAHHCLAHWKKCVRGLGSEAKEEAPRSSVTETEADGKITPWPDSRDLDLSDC
T1 sequence (P47936 whole entry): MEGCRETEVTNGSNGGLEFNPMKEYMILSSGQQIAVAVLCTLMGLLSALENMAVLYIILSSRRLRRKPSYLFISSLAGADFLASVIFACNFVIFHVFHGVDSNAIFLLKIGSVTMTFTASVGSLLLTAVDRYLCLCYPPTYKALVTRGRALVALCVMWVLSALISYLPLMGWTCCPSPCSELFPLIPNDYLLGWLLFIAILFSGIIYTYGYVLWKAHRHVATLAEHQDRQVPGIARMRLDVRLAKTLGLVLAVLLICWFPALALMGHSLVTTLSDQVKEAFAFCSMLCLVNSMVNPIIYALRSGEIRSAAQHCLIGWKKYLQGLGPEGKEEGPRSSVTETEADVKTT

## CN1CCCCC1Cn1cc(C(=O)c2cc([N+](=O)[O-])ccc2I)c2ccccc21 (centres unmarked) [AM1241]
[1]
  release of β-endorphin: stimulated the release of the endogenous opioid β-endorphin
[2]
  μ-opioid receptor expression: upregulated μ-opioid receptor expression
[3]; low dose coadministered with morphine
  morphine tolerance: reduced the morphine tolerance
[3]; tumor-bearing rats
  opioid-mediated antinociception, hotplate and mechanical sensitivity: modest enhancement of opioid-mediated antinociception

## CCCCCCC(C)(C)c1cc(O)c2c(c1)oc(=O)c1ccc(OC)cc12 [AM1710, 3-(1,1-dimethyl-heptyl)-1-hydroxy-9-methoxy-benzo(c) chromen-6-one]
[4]
  paclitaxel-induced neuropathic pain, tolerance and physical dependence: suppresses paclitaxel-induced neuropathic pain without producing tolerance or physical dependence
[5]; HEK hCB2
  cAMP levels, compound alone (no forskolin): alone did not change the cAMP levels
  duration of decrease in cAMP: up to 30 minutes
[5]; HEK hCB2, 1 μM final concentration
  inhibition of forskolin-induced cAMP levels, time course: induced a delayed and persistent inhibition of forskolin-stimulated cAMP levels, starting at 10 minutes
[5]; HEK hCB2, 1 μM final concentration, PTX
  inhibition of forskolin-stimulated cAMP after PTX pretreatment: blocked the inhibition of forskolin-stimulated cAMP
[5]; HEK hCB2, with forskolin, 5 minutes, PTX
  cAMP levels vs forskolin alone in PTX-treated cells: increased cAMP levels compared with forskolin alone
[6]; [13]
  tolerance to antiallodynic effects over repeated administration, mechanical: tolerance did not develop
[6]; [14]
  development of tolerance to phase II morphine, mechanical: delayed the development of tolerance to morphine
[6]; [15]
  mechanical paw withdrawal thresholds, chronic phase I treatment: increased mechanical paw withdrawal thresholds
[7]
  naloxone-precipitated jumps, AM1710 (I)-morphine (II) vs vehicle (I)-vehicle (II): did not differ
[7]; AM1710 5 mg/kg i.p.×12 days, morphine 10 mg/kg i.p.×12 days
  number of naloxone-precipitated jumps, AM1710 (I)-morphine (II) vs vehicle (I)-morphine (II): lower
[8]; [13]
  tolerance to antiallodynic effects over repeated administration, cold: tolerance did not develop
[8]; [14]
  development of tolerance to phase II morphine, cold: delayed the development of tolerance to morphine
[8]; [15]
  cold response time, chronic phase I treatment: reduced the heightened cold response time
[9]; HEK mCB2, 1 μM
  time by which inhibition of forskolin-stimulated cAMP dissipated: ≤ 15 min
[9]; HEK mCB2, 1 μM final concentration, 5 minutes
  forskolin-induced cAMP levels: attenuated forskolin-induced cAMP levels
[9]; HEK mCB2, compound alone
  cAMP levels in the absence of forskolin: alone did not change cAMP levels
[9]; HEK mCB2, compound alone, 10 minutes
  cAMP levels in the absence of forskolin at 10 minutes: decreased cAMP levels below the basal/no forskolin level
[9]; mCB2, 1 μM, PTX 300 ng/ml overnight
  forskolin-stimulated cAMP after PTX treatment: abolished the decrease in forskolin-stimulated cAMP

## CCCn1c(C)c(C(=O)c2cccc3ccccc23)c2ccccc21 [JWH015]
[10]
  pain inhibition on coadministration with morphine: synergistically inhibited preclinical inflammatory, postoperative, and neuropathic pain
[11]
  morphine analgesia and morphine antinociceptive tolerance: increased morphine analgesia and morphine antinociceptive tolerance

## CCCC(C)(C)c1ccc2c(c1)OC(C)(C)[C@@H]1CC=C(C)C[C@@H]21 [JWH133]
[12]
  opioid-sparing effects: exhibited opioid-sparing effects

— US20190314379A1, “METHODS OF USING CANNABINOID CB2 RECEPTOR AGONIST COMPOSITIONS TO SUPPRESS AND PREVENT OPIOID TOLERANCE AND WITHDRAWAL IN A SUBJECT” (Indiana University Research and Technology Corporation, priority 2018, published 2019)
